In publication PMC5110245, “Identification and reconstitution of the rubber biosynthetic machinery on rubber particles from Hevea brasiliensis” (eLife, 2016):

How the values were obtained:
Format in all cases: biochemical
HRT1–HRBP–REF = target: T1, HRT1–HRBP–REF (Hevea brasiliensis, UniProt Q8L5B7); experiment: […]-IPP incorporation into rubber, allylic substrate dependency; details: allylic primer 15 µM; 100 µM [4-14C]IPP, 5 mM MgCl2, pH 7.5, 30 °C, 8 h; on WRPs
T1 construct: gene Hpt4; full-length CDSs, wheat germ cell-free co-translation onto CHAPS-washed Hevea rubber particles (WRPs); HRBP His6-tagged; stoichiometry not known; endogenous background present; Rubber elongation factor protein
T1 sequence (P15252 2-138, one chain of several): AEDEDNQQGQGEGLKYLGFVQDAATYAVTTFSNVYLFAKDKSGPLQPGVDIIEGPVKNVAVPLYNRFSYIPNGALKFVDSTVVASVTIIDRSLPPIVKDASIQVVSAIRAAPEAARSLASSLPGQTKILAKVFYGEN
T1 sequence (A0A1E1GJI0 entry or part of it, one chain of several, further chain): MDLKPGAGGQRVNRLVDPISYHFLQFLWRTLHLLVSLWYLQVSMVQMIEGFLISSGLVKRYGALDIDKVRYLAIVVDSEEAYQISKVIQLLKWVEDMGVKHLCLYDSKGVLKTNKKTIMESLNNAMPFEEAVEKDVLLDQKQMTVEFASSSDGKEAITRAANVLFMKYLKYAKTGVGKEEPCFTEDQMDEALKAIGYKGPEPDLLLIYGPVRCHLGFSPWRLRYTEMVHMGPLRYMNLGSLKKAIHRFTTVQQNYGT

LsCPT3-LsCPTL2 = target: T2, LsCPT3-LsCPTL2 (Lactuca sativa, UniProt A0A0A0QMT0); experiment: […]-IPP incorporation into rubber, net of vector-control WRPs; details: 15 µM FPP, 5 mM MgCl2, pH 7.5, 30 °C; on Hevea WRPs; labelled compound
T2 construct: full-length synthetic CDSs (LsCPT3 in pEU-E01-His-TEV-MCS-N2, LsCPTL2 in pEU-E01-His-TEV-MCS-C1); wheat germ cell-free co-translation onto CHAPS-washed Hevea rubber particles (WRPs); with cis-prenyltransferase-like 2
T2 sequence (A0A0A0QMT0 1-296): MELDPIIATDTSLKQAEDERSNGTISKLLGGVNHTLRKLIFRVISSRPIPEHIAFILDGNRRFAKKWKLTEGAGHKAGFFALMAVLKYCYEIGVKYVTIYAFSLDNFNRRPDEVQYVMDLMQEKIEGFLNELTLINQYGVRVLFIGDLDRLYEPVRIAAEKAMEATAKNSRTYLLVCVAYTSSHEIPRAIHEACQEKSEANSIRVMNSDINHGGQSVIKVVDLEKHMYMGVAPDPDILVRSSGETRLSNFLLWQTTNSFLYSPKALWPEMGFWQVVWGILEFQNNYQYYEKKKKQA
T2 sequence (A0A0A0QP73 1-244 partner): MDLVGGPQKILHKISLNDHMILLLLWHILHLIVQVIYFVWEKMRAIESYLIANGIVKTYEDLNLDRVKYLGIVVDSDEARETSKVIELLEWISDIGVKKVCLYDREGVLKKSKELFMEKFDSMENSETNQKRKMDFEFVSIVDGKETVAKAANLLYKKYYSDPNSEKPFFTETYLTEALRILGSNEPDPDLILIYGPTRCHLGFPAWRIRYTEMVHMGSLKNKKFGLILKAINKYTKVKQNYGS

HRT1 = target: T3, HRT1 (Hevea brasiliensis, UniProt Q8L5B7); experiment: as above; details: 15 µM FPP, 5 mM MgCl2, pH 7.5, 30 °C; on WRPs; labelled compound
T3 construct: gene Hpt4; full-length CDS in pEU-E01-His-TEV-MCS-N2; wheat germ cell-free translation onto CHAPS-washed Hevea rubber particles (WRPs), which keep small amounts of endogenous proteins
T3 sequence (Q8L5B7 1-290): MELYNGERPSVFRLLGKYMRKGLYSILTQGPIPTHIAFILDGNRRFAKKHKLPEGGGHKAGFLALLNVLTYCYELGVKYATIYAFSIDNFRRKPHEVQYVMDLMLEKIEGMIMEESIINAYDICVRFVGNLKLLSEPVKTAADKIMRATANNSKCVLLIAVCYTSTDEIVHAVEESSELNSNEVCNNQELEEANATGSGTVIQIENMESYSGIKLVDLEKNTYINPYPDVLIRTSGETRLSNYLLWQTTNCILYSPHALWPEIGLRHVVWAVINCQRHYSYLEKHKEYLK

Row | 14C-IPP incorporation into rubber, allylic substrate dependency (HRT1–HRBP–REF) | SMILES | 14C-IPP incorporation into rubber, net of vector-control WRPs (LsCPT3-LsCPTL2) | 14C-IPP incorporation into rubber, net of vector-control WRPs (HRT1)
1 | the RTase was most active with FPP (C15) | CC(C)=CCC/C(C)=C/CC/C(C)=C/COP(=O)(O)OP(=O)(O)O [FPP, E,E-farnesyl diphosphate] |  | 
2 |  | C=C(C)CCOP(=O)(O)OP(=O)(O)O [IPP, isopentenyl diphosphate] | Co-expression of LsCPTL2 with LsCPT3 resulted in an increase of the activity of LsCPT3 | introduction of HRT1 onto WRPs distinctly increased the RTase activity (Figure 9A)
